Among the data in patent US20240376091A1, “THIADIAZOLEAMIDE DERIVATIVES AND THEIR APPLICATIONS” (ZHEJIANG UNIVERSITY, priority 2021, published 2024) are IC50 values, retold here.

Each structure is given as a SMILES string.

For this test, the target named is T1, AR (Homo sapiens, UniProt P10275, T878A).
T1 construct: into the androgen-dependent PCa cells (LNCaP); endogenous in cells; host or cells: LNCaP-ARR2PB-eGFP
T1 sequence (P10275 1-920 T878A): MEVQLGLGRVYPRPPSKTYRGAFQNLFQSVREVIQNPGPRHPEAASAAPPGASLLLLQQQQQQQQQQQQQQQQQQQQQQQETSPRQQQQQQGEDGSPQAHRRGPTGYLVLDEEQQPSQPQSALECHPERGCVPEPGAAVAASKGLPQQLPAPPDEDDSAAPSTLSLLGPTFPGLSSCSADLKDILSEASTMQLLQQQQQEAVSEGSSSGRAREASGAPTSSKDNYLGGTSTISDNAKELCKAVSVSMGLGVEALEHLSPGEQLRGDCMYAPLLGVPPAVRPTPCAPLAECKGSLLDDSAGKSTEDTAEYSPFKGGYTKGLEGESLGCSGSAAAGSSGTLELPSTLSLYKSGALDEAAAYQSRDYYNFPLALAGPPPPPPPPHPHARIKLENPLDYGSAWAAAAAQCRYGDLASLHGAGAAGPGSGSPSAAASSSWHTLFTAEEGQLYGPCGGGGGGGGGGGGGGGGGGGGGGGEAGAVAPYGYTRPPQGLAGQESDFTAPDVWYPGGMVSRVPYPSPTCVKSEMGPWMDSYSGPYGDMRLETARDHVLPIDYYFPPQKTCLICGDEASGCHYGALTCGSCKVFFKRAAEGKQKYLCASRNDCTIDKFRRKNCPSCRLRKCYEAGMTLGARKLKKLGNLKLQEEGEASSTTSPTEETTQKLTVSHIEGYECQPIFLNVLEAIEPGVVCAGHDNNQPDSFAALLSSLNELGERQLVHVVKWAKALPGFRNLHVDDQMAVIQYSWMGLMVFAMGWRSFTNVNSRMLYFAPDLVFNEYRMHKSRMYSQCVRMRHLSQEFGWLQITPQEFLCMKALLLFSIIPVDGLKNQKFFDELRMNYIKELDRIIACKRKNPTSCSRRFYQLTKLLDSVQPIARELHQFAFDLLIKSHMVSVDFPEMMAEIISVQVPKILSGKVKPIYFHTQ
The experiment in a line: AR transcriptional activity, LNCaP-ARR2PB-eGFP reporter cells. It counts as cell-based. Conditions: read-out: IC50 AR transcriptional activities. The source says:
Detection principles: We conducted a stable transfection of promoter ARR2PB known for its strong AR responsiveness, into the androgen-dependent PCa cells (LNCaP). The expression of enhanced green fluorescent protein (eGFP) is depending on the degree of activation of AR. Therefore, LNCaP-ARR2PB-eGFP cell line could quantitatively determine the AR antagonistic activities of the compounds by evaluating the expression of eGFP.
`Cc1sc(-c2cccc(C(F)(F)F)c2)cc1C(=O)Nc1nc(CC(C)(O)C(F)(F)F)ns1` (stereo not shown) [Compound C-25, 2-Methyl-N-(3-(3,3,3-trifluoro-2-hydroxy-2-methylpropyl)-1,2,4-thiadiazol-5-yl)-5-(3-(trifluoromethyl)phenyl)thiophene-3-carboxamide]: the IC50 was found to be 2.51 µM.

For the compound `CC(Cc1nsc(NC(=O)c2csc(-c3cccc(OC(F)(F)F)c3)c2)n1)N1CCOCC1` [Compound D-16, N-(3-(2-morpholinopropyl)-1,2,4-thiadiazol-5-yl)-5-(3-(trifluoromethoxy)phenyl)thiophene-3-carboxamide], the IC50 stood at 24.2 µM.

With `CCOc1cccc(-c2cc(C(=O)Nc3nc(CC(C)=O)ns3)c(C)o2)c1` [Compound A-6, 5-(3-Ethoxyphenyl)-2-methyl-N-(3-(2-oxopropyl)-1,2,4-thiadiazol-5-yl)furan-3-carboxamide], the IC50 was 0.13 µM.

Consider `COc1cccc(-c2cc(C(=O)Nc3nc(CN4CCOCC4)ns3)oc2C)c1` [Compound F-26, 4-(3-Methoxyphenyl)-5-methyl-N-(3-(morpholinomethyl)-1,2,4-thiadiazol-5-yl)furan-2-carboxamide], for which the concentration for half-maximal inhibition (IC50) stood at 31.9 µM.

Take `Cc1oc(-c2cccc(C(F)(F)F)c2)cc1C(=O)Nc1nc(CN2CCOCC2)ns1` [Compound A-110, 2-Methyl-N-(3-(morpholinomethyl)-1,2,4-thiadiazol-5-yl)-5-(3-(trifluoromethyl)phenyl) furan-3-carboxamide]: the IC50 came to 0.25 µM.

In the case of `CC(Cc1nsc(NC(=O)c2cc(-c3cccc(OC(F)F)c3)oc2C(F)(F)F)n1)N1CCN(C)CC1` (stereo not shown) [Compound E-11, 5-(3-(Difluoromethoxy)phenyl)-N-(3-(2-(4-methylpiperazin-1-yl)propyl)-1,2,4-thiadiazol-5-yl)-2-(trifluoromethyl)furan-3-carboxamide], the IC50 was found to be 0.97 µM.

Turning to `Cc1sc(-c2cccc(OC(F)F)c2)cc1C(=O)Nc1nc(CN2CCOCC2)ns1` [Compound C-57, 5-(3-(Difluoromethoxy)phenyl)-2-methyl-N-(3-(morpholinomethyl)-1,2,4-thiadiazol-5-yl)thiophene-3-carboxamide], the IC50 stood at 13.3 µM.

In the case of `COC(=O)c1cccc(-c2cc(C(=O)Nc3nc(CC(C)=O)ns3)c(C)o2)c1` [Compound A-30, Methyl 3-(5-methyl-4-((3-(2-oxopropyl)-1,2,4-thiadiazol-5-yl)carbamoyl)furan-2-yl)benzoate], the IC50 stood at 5.19 µM.

Take `CC(=O)Cc1nsc(NC(=O)c2cc(-c3cccc(OC(F)(F)F)c3)oc2C)n1` [Compound A-13, 2-Methyl-N-(3-(2-oxopropyl)-1,2,4-thiadiazol-5-yl)-5-(3-(trifluoromethoxy)phenyl)furan-3-carboxamide]: the half-maximal inhibitory concentration (IC50) amounted to 0.48 µM.

As for `Cc1oc(-c2cccc(OC(F)F)c2)cc1C(=O)Nc1nc(CN2CCN(C)CC2)ns1` [Compound A-131, 5-(3-(Difluoromethoxy)phenyl)-2-methyl-N-(3-((4-methylpiperazin-1-yl)methyl)-1,2,4-thiadiazol-5-yl)furan-3-carboxamide], the IC50 came out at 1.42 µM.

As for `Cc1oc(-c2cccc(C#N)c2)cc1C(=O)Nc1nc(CC(C)N2CCOCC2)ns1` (stereo not shown) [Compound A-52, 5-(3-Cyanophenyl)-2-methyl-N-(3-(2-morpholinopropyl)-1,2,4-thiadiazol-5-yl)furan-3-carboxamide], the half-inhibitory concentration (IC50) stood at 0.76 µM.

On to `CC(=O)Cc1nsc(NC(=O)c2cc(-c3cccc(C(F)(F)F)c3)c(C)o2)n1` [Compound F-1, 5-Methyl-N-(3-(2-oxopropyl)-1,2,4-thiadiazol-5-yl)-4-(3-(trifluoromethyl)phenyl)furan-2-carboxamide], for which the 50% inhibitory concentration (IC50) came out at 28.1 µM.

Turning to `CC(O)(Cc1nsc(NC(=O)c2coc(-c3cccc(C(F)(F)F)c3)c2)n1)C(F)(F)F` (stereo not shown) [Compound B-25, N-(3-(3,3,3-trifluoro-2-hydroxy-2-methylpropyl)-1,2,4-thiadiazol-5-yl)-5-(3-(trifluoro-methyl)phenyl)furan-3-carboxamide], the 50% inhibitory concentration (IC50) amounted to 15.5 µM.

With `O=C(Nc1nc(CCl)ns1)c1cc(-c2cccc(C(F)(F)F)c2)co1` [Compound G-19, N-(3-(chloromethyl)-1,2,4-thiadiazol-5-yl)-4-(3-(trifluoromethyl)phenyl)furan-2-carboxamide], the IC50 turned out to be 31.4 µM.

As to `COc1cccc(-c2cc(C(=O)Nc3nc(CC(C)=C(F)F)ns3)oc2C)c1` [Compound F-15, N-(3-(3,3-difluoro-2-methylallyl)-1,2,4-thiadiazol-5-yl)-4-(3-methoxyphenyl)-5-methyl-furan-2-carboxamide], the IC50 is 35.9 µM.

Turning to `COc1cccc(-c2cc(C(=O)Nc3nc(CC(C)N4CCCCC4)ns3)c(C)o2)c1` (stereo not shown) [Compound A-49, 5-(3-Methoxyphenyl)-2-methyl-N-(3-(2-(piperidin-1-yl)propyl)-1,2,4-thiadiazol-5-yl)furan-3-carboxamide], the IC50 was determined as 0.21 µM.

For `Cc1oc(C(=O)Nc2nc(CC(C)(O)C(F)(F)F)ns2)cc1-c1cccc(C(F)(F)F)c1` (stereo not shown) [Compound F-13, 5-Methyl-N-(3-(3,3,3-trifluoro-2-hydroxy-2-methylpropyl)-1,2,4-thiadiazol-5-yl)-4-(3-(tri-fluoromethyl)phenyl)furan-2-carboxamide], the half-maximal inhibitory concentration (IC50) was 31.5 µM.

For the compound `Cc1sc(-c2cccc(OC(F)F)c2)cc1C(=O)Nc1nc(CC(C)N2CCN(C)CC2)ns1` (stereo not shown) [Compound C-19, 5-(3-(Difluoromethoxy)phenyl)-2-methyl-N-(3-(2-(4-methylpiperazin-1-yl)propyl)-1,2,4-thiadiazol-5-yl)thiophene-3-carboxamide], the 50% inhibitory concentration (IC50) was determined as 15.4 µM.

On to `O=C(Nc1nc(CN2CCCC2)ns1)c1csc(-c2cccc(OC(F)(F)F)c2)c1` [Compound D-53, N-(3-(pyrrolidin-1-ylmethyl)-1,2,4-thiadiazol-5-yl)-5-(3-(trifluoromethoxy)phenyl)thiophene-3-carboxamide], for which the concentration for half-maximal inhibition (IC50) turned out to be 27.3 µM.

As for `COc1cccc(-c2cc(C(=O)Nc3nc(CC(C)N4CCOCC4)ns3)oc2C)c1` (stereo not shown) [Compound F-8, 4-(3-Methoxyphenyl)-5-methyl-N-(3-(2-morpholinopropyl)-1,2,4-thiadiazol-5-yl)furan-2-carboxamide], the IC50 amounted to 17.6 µM.

Regarding `Cc1oc(-c2cccc(C(F)(F)F)c2)cc1C(=O)Nc1ncns1` [Compound A-99, 2-Methyl-N-(1,2,4-thiadiazol-5-yl)-5-(3-(trifluoromethyl)phenyl)furan-3-carboxamide], the IC50 stood at 10.4 µM.

For `O=C(Nc1nc(CN2CCOCC2)ns1)c1csc(-c2cccc(OC(F)F)c2)c1` [Compound D-57, 5-(3-(Difluoromethoxy)phenyl)-N-(3-(morpholinomethyl)-1,2,4-thiadiazol-5-yl)thiophene-3-carboxamide], the IC50 came out at 15 µM.

With `CC(=O)Cc1nsc(NC(=O)c2cc(-c3cccc(OC(F)F)c3)co2)n1` [Compound G-5, 4-(3-(Difluoromethoxy)phenyl)-N-(3-(2-oxopropyl)-1,2,4-thiadiazol-5-yl)furan-2-carboxamide], the IC50 came out at 32.7 µM.

For `Cc1oc(C(=O)Nc2nc(CC(C)O)ns2)cc1-c1cccc(C(F)(F)F)c1` (stereo not shown) [Compound F-11, N-(3-(2-hydroxypropyl)-1,2,4-thiadiazol-5-yl)-5-methyl-4-(3-(trifluoromethyl)phenyl) furan-2-carboxamide], the IC50 came out at 22.3 µM.

As to `Cc1oc(-c2cccc(C(F)(F)F)c2)cc1C(=O)Nc1nc(CC(C)N)ns1` (stereo not shown) [Compound A-66, N-(3-(2-aminopropyl)-1,2,4-thiadiazol-5-yl)-2-methyl-5-(3-(trifluoromethyl)phenyl)furan-3-carboxamide], the IC50 is 1.39 µM.

Consider `CC(=O)Cc1nsc(NC(=O)c2cc(-c3cccc(C(F)(F)F)c3)sc2C)n1` [Compound C-1, 2-Methyl-N-(3-(2-oxopropyl)-1,2,4-thiadiazol-5-yl)-5-(3-(trifluoromethyl)phenyl)thiophene-3-carboxamide], for which the half-maximal inhibitory concentration (IC50) was found to be 9.33 µM.

Consider `O=C(Nc1nc(CN2CCOCC2)ns1)c1coc(-c2cccc(OC(F)F)c2)c1` [Compound B-57, 5-(3-(Difluoromethoxy)phenyl)-N-(3-(morpholinomethyl)-1,2,4-thiadiazol-5-yl)furan-3-carboxamide], for which the IC50 is 23.5 µM.

As to `COc1cccc(-c2cc(C(=O)Nc3nc(CC(C)N4CCCCC4)ns3)c(C(F)(F)F)o2)c1` (stereo not shown) [Compound E-9, 5-(3-Methoxyphenyl)-N-(3-(2-(piperidin-1-yl)propyl)-1,2,4-thiadiazol-5-yl)-2-(trifluoro-methyl)furan-3-carboxamide], the half-maximal inhibitory concentration (IC50) worked out at 5.29 µM.

Broadly, the IC50 is the midpoint of a concentration-inhibition curve.
